Assay results taken from ChEMBL document CHEMBL1151145, “Minor Bioactive Polyacetylenes from Petrosia ficiformis” (J Nat Prod, 1990).
In brackets after ≈: the same amount, converted by molar mass.

Tests used:
[1] = Toxicity against Artemia salina after 24 hrs; assay type: organism-based; conditions: in vivo
[2] = test system: Agrobacterium tumefaciens; assay: Inhibition of Agrobacterium tumefaciens-induced tumor formation in potato at 0.5 mg/ml by antitumor potato disk assay; assay type: functional
[3] = Inhibition of sea urchin egg development after 48 hrs; conditions: echinoidea, sea urchin eggs

Structure (SMILES) | LC50 at 24 h [1] [µg/mL] | inhibition at 500 µg/mL [2] [%] | LC50 at 48 h [3] [µg/mL]
C#CC(O)/C=C/CCCCCCCCCCCCCCCCCCCCCCCCCCCCCCCCC/C=C\C#CC(=O)OC (stereo unspecified) | 0.002 (≈ 0.00306 µM) | – | –
C#C/C=C\CCCCCCCCCCCCCC/C=C\CC/C=C/C#CC(O)C#CCCCC/C=C\CCCCCC/C=C/C(O)C#C (stereo unspecified) | 0.0075 (≈ 0.0115 µM) | 43 | 50 (≈ 76.6 µM)
C#C/C=C\CCCCCCCCCCCCCC/C=C\CC/C=C/C#CC(O)C#CCCCC/C=C\CCCCCC/C=C/C(=O)C#C (stereo unspecified) | 0.04 (≈ 0.0614 µM) | – | –
C#CC(O)/C=C/CC/C=C\CCCC/C=C\CCC#CC(O)C#C/C=C/CC/C=C\CCCCCCCCCCCCC/C=C/C(O)C#C (stereo unspecified) | 0.009 (≈ 0.0135 µM) | 15 | 1 (≈ 1.5 µM)
C#C[C@@H](O)/C=C/CCCCCC/C=C\CCCCC#C[C@H](O)C#C/C=C/CC/C=C\CCCCCCCCCCCCC/C=C/[C@H](O)C#C [PETROFORMYNE 1] | 0.014 (≈ 0.0209 µM) | 35 | 10 (≈ 14.9 µM)
C#CCCCCCCCCCCCCCCCC/C=C\CC/C=C/C#C[C@@H](O)C#CCCCC/C=C\CCCCCC/C=C/[C@H](O)C#C [PETROFORMYNE 3] | 0.003 (≈ 0.00458 µM) | 49 | 10 (≈ 15.3 µM)
C#CCCCCCCCCCCCCCCCC/C=C\CC/C=C/C#CC(O)C#CCCCC/C=C\CCCCCC/C=C/C(=O)C#C (stereo unspecified) [PETROFORMYNE 6] | 0.12 (≈ 0.184 µM) | – | –
C#CC(O)/C=C/CCCCCCCCCCCCCCCCCCCCCCCCCCCCCCCCCCC/C=C\C#CC(=O)OC (stereo unspecified) [PETROFORMYNE B] | 0.0025 (≈ 0.00367 µM) | – | –
